Data on one compound can be found in US11033569B2, “Compounds,Compositions, and methods for the treatment of disease” (Sperovie Biosciences, Inc., priority 2016, dated 2021).

Each structure is given as a SMILES string. Entries after “also recorded” stand apart in the source; their conditions may differ.

In series [1] the target is T1, STING (Homo sapiens, UniProt Q86WV6).
T1 construct: host or cells: SZ14 HEK293 cells stably expressing ISG54 ISRE-luc reporter
The series can be described thus: STING dependence of cell death. The series is classed as cell-based.

The test system of series [2] is A20 lymphoma. The series can be described thus: Syngeneic A20 lymphoma mouse model. To be noted: for tumor growth upon re-challenge with tumor cells: compared with control. The format is in vivo.
The test system of series [3] is panel of normal cell lines. In words: Cytotoxicity in a panel of normal cell lines. The format is cell-based.
Series [4] has as its system mouse macrophages. In words: Type I IFN signaling in mouse macrophages. The format is cell-based. How it is done: Activity of secreted luciferase in cell culture supernatant was measured using Invivogen Quanti-luc. Data are shown as fold induction over DMSO treated cells (mean±standard deviation of triplicate wells per stimulant).
Series [5] concerns mouse melanoma cells. In words: Apoptosis of mouse melanoma cells. The series is classed as cell-based.
The nature of series [6]: Immunohistochemistry on tissues from treated mice. The series is classed as in vivo.
Series [7] relates to 4T1.luc2 orthotopic murine breast carcinoma. In words: 4T1.luc2 orthotopic murine breast carcinoma model. The series is classed as in vivo, mice. On the procedure: The efficacy of intraperitoneal administration of Cmd 1 was investigated in the 4T1.luc2 orthotopic murine breast carcinoma model. Thirty female BALB/c mice between 7-10 weeks old were randomized into four treatment groups based on Day 1 body weight, and the treatment was carried out according to the regimen outlined in Table 4 below. Cmd 1 was dissolved in saline and administered at 10 mL/kg (0.200 mL/20 g mouse), with a cell injection volume of 0.05 mL/mouse.
Each animal was monitored individually. The endpoint of the experiment was a tumor volume of […] or 45 days. Animals in Groups 1 and 2 were subjected to whole body bioluminescent imaging starting on Day 5 and once a week thereafter (Days 12, 19, 26, 33, and 41). At the endpoint, blood and tissue (lung, lymph nodes, spleen, and tumor) was analyzed for presence of metastases and biomarker (CD45, CD3, CD4, CD8, CD11b, CD25, Ly-6G, Ly-6C, FoxP3) levels.

Series [8] concerns the target T1, STING. In words: Gel shift assay. To be noted: gel shift with fluorescent close structural analog of Cmd 1. The format is binding. On the technique in general: In EMSA bound probe runs differently from free probe, usually more slowly.
Series [9] relates to STING-R238A and STING-Y167A. The series can be described thus: STING loss-of-function mutants, STING-dependent IFN response. The series is classed as cell-based.

T1 sequence (Q86WV6 whole entry): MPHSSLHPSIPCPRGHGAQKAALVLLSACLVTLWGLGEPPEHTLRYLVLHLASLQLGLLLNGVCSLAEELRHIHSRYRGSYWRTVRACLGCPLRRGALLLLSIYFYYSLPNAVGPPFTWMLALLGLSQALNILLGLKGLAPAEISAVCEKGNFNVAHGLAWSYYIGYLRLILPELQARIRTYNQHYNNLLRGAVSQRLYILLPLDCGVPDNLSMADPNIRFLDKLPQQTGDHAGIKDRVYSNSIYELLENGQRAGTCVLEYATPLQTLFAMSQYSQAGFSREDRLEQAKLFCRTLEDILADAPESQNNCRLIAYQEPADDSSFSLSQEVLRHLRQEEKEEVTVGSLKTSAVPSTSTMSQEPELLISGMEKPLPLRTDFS

On to `CCCCCCCCCCOc1ccc(C(=O)Oc2ccc(CSP3(=O)OC[C@H]4O[C@@H](n5cnc6c(N)ncnc65)[C@H](F)[C@@H]4OP(=O)(O)OC[C@H]4O[C@@H](n5ccc(=O)[nH]c5=O)[C@H](F)[C@@H]4O3)cc2)cc1.N` (some centres unmarked) [Cmd 1], for which the “STING dependence of induction of cell death” value in [1] is “STING-mediated”. Also, the survival rate result in [2] (combination therapy with cyclophosphamide) and in series [2] (monotherapy) was “significantly improve the survival rate” each time. Besides, the tumor-free survival result in series [2] (in combination with cyclophosphamide) is “results in tumor-free survival”. For the same compound, the tumor growth entry was “potently inhibits lymphoma tumor growth; also recorded: considerable tumor growth inhibition; also recorded: inhibit mouse A20 B cell lymphoma tumor cells” in series [2] (monotherapy, compared with vehicle) and “considerable tumor growth inhibition” in series [7] (4T1 breast cancer model, compared with vehicle (FIG. 75)). Besides, in series [2] (tumor tissue, vs vehicle), the “migration of CD8 T cells into the tumor site (immunohistochemistry)” value is “induces migration of CD8 T into the tumor site”. In series [2] (tumor tissue, vs vehicle), the “migration of NK cells into the tumor site (anti-granzyme B immunohistochemistry)” value was “induces migration of NK cells into the tumor site”. Further, in series [2] (tumor tissue, vs vehicle), the “migration of macrophages into the tumor site (anti-F4/80 immunohistochemistry)” value is “induces migration of macrophages into the tumor site”. The “tumor growth upon re-challenge with tumor cells” value in series [2] (tumor-free mice after Cmd 1 + cyclophosphamide treatment) and in [2] (tumor-free mice after Cmd 1 treatment) was “no tumor growth” in each case. Also, the cytotoxicity entry in series [3] is listed as “non-cytotoxic”. For the same compound, in series [4] (mouse macrophages (FIG. 36B)), the “activity relative to natural STING ligand 3′,3′-cGAMP” value is given as “more active”. In [4] (mouse macrophages, similar to 2′,3′-cGAMP), the “activation of type 1 IFN signaling” value was “highly active”. In addition, in series [5], the apoptosis entry was “causes apoptosis”. Further, in series [6], the “correlation of anti-tumor activity with immune response” value is “correlates with the induction of the innate and adaptive immune response”. The “tumor growth / tumor volume” value in series [7] (10 mg/kg ip days 5, 7, 9, 11, 14, 18, compared with control) is on record as “significant decline in tumor volume; also recorded: significant decrease in tumor growth”. Besides, in series [7] (intraperitoneal administration, compared with vehicle (FIG. 82)), the “tumor growth (luminescence images)” value is “considerable tumor growth inhibition”. Besides, the “binding to STING” value in [8] was “binds to STING”. Besides, the “dependence of STING activation on residues R238 and Y167” value in [9] is recorded as “critical”.
